# Results published in US9326506B2, “Preparation method, agricultural composition and applications of natural brassinolide analogs” (CHENGDU NEWSUN CROPSCIENCE CO., LTD, priority 2012, dated 2016).
# Columns and labels:
# rice = experiment: Rice leaf bending assay (leaf inclination angle); format: in vivo; conditions: for Average angle / Total angle: 48 hr; for Total angle: sum of 20 rice; for Effects on leaf inclination compared among analogues: in the case of high concentrations
# Source text: According to a rice leaf bending assay, we measured leaf inclination angle of rice to determine effects of the natural brassinolide analogues on the enhancement of plant development. The larger the leaf inclination angle of rice, the more effects on plant development. The detailed assay procedure is as follows:
# The natural brassinolide analogues, BR1, BR2, BR3, BR4, BR5 and BR6, used herein, were those prepared by the method of Example 1. And BR1, BR2, BR3, BR4, BR5 and BR6 were mixed into a mixture of brassinolide analogues (referred to as “BRs”, in which the weight ratio of BR1:BR2:BR3:BR4:BR5:BR6 is 0.4:0.4:0.4:0.4:0.4:98). Respectively the analogues and the mixture were dissolved into 95% (V/V) ethanol solution, and then diluted with pure water to 1 mg/L, 0.1 mg/L, 0.01 mg/L, 0.001 mg/L and 0.0001 mg/L. In addition, pure water was used as a control.
# After rice seeds were disinfected by using 5% sodium hypochlorite solution treatment, they were rinsed with distilled water until their pH>7, placed into a petri dish in a dark incubator, and cultured by using water at 30° C.±2° C. for 9 days. Then the nine-day-old etiolated seedlings of rice were cut around the center of the base of second leaf to segments with 1 cm leaf and 1 cm leaf sheath. The leaf segments were floated in distilled water, placed in a dark incubator, cultured at 30° C.±2° C. for 24 hr, and then dried by a filter paper. The dried leaf segments were respectively immersed in the above solutions containing different concentrations of the natural brassinolide analogues or pure water, and cultured in a dark incubator at 30° C.±2° C. for 48 hr. Every solution or pure water contained the leaf segments from 20 rice. Then the inclination angle between the second leaf and the leaf sheath of the leaf segments was measured by a protractor.
# rice seed = experiment: Salt tolerance assay: germination of rice seed under high salt environment; format: in vivo
# Source text: According to a salt tolerance assay, we measured germination of rice seed under high salt environment to determine effects of the natural brassinolide analogues on the salt tolerance of a plant.
# The natural brassinolide analogues, BR1, BR2, BR3, BR4, BR5 and BR6, used herein, were those prepared by the method of Example 1. And BR1, BR2, BR3, BR4, BR5 and BR6 were mixed into a mixture of brassinolide analogues (referred to as “BRs”, in which the weight ratio of BR1:BR2:BR3:BR4:BR5:BR6 is 0.4:0.4:0.4:0.4:0.4:98). Respectively the analogues and the mixture were dissolved into 95% (V/V) ethanol solution, and then diluted with pure water to 1 mg/L, 0.1 mg/L, 0.01 mg/L, 0.001 mg/L and 0.0001 mg/L. In addition, pure water was used as a control. Furthermore, NaCl was added to the above solutions containing different concentrations of the natural brassinolide analogues or pure water respectively, and the concentrations of the salt are 300, 400, 500 and 600 mg/L respectively.
# After rice seeds were disinfected by using 5% sodium hypochlorite solution treatment, they were rinsed with distilled water until their pH>7, placed into a petri dish in a dark incubator, and cultured at 30° C.±2° C. by using the above solutions containing different concentrations of the natural brassinolide analogues or pure water for observing the germination and calculating germination rates. The results are shown in tables 4-0˜4-4, which indicate that relative to the control, each of the natural brassinolide analogues and the mixture were capable of increasing germination rates of rice under high salt environment so as to enhance the salt tolerance of a plant; and substantially the enhancement of the germination rates was positively correlated to the concentrations of the natural brassinolide analogues and the mixture.
# [1] = rice seed, sample 0.0001 mg/l, salt (NaCl) 300 mg/l
# [2] = rice seed, sample 0.0001 mg/l, salt (NaCl) 400 mg/l
# [3] = rice seed, sample 0.0001 mg/l, salt (NaCl) 500 mg/l
# [4] = rice seed, sample 0.0001 mg/l, salt (NaCl) 600 mg/l
# [5] = rice seed, sample 0.001 mg/l, salt (NaCl) 300 mg/l
# [6] = rice seed, sample 0.001 mg/l, salt (NaCl) 400 mg/l
# [7] = rice seed, sample 0.001 mg/l, salt (NaCl) 500 mg/l
# [8] = rice seed, sample 0.001 mg/l, salt (NaCl) 600 mg/l
# [9] = rice seed, sample 0.01 mg/l, salt (NaCl) 300 mg/l
# [10] = rice seed, sample 0.01 mg/l, salt (NaCl) 400 mg/l
# [11] = rice seed, sample 0.01 mg/l, salt (NaCl) 500 mg/l
# [12] = rice seed, sample 0.01 mg/l, salt (NaCl) 600 mg/l
# [13] = rice seed, sample 0.1 mg/l, salt (NaCl) 300 mg/l
# [14] = rice seed, sample 0.1 mg/l, salt (NaCl) 400 mg/l
# [15] = rice seed, sample 0.1 mg/l, salt (NaCl) 500 mg/l
# [16] = rice seed, sample 0.1 mg/l, salt (NaCl) 600 mg/l
# [17] = rice seed, sample 1 mg/l, salt (NaCl) 300 mg/l
# [18] = rice seed, sample 1 mg/l, salt (NaCl) 400 mg/l
# [19] = rice seed, sample 1 mg/l, salt (NaCl) 500 mg/l
# [20] = rice seed, sample 1 mg/l, salt (NaCl) 600 mg/l
# [21] = sample 0.0001 mg/l, salt 300 mg/l
# [22] = sample 0.0001 mg/l, salt 400 mg/l
# [23] = sample 0.0001 mg/l, salt 500 mg/l
# [24] = sample 0.0001 mg/l, salt 600 mg/l
# [25] = sample 0.001 mg/l, salt 300 mg/l
# [26] = sample 0.001 mg/l, salt 400 mg/l
# [27] = sample 0.001 mg/l, salt 500 mg/l
# [28] = sample 0.001 mg/l, salt 600 mg/l
# [29] = sample 0.01 mg/l, salt 300 mg/l
# [30] = sample 0.01 mg/l, salt 400 mg/l
# [31] = sample 0.01 mg/l, salt 500 mg/l
# [32] = sample 0.01 mg/l, salt 600 mg/l
structure (smiles),measurement,setting,value
CC(C)(O)CC[C@@H](O)[C@](C)(O)[C@H]1CC[C@@]2(O)[C@@H]3CC(=O)[C@@H]4C[C@@H](O)[C@@H](O)C[C@]4(C)[C@H]3CC[C@]12C [BR6],Average angle,rice; 0.0001 mg/l,4.25 degree
same,Total angle,rice; 0.0001 mg/l,85 degree
same,Average angle,rice; 0.001 mg/l,7.1 degree
same,Total angle,rice; 0.001 mg/l,142 degree
same,Average angle,rice; 0.01 mg/l,23 degree
same,Total angle,rice; 0.01 mg/l,460 degree
same,Average angle,rice; 0.1 mg/l,35.5 degree
same,Total angle,rice; 0.1 mg/l,710 degree
same,Average angle,rice; 1 mg/l,109 degree
same,Total angle,rice; 1 mg/l,2180 degree
same,Effects on leaf inclination compared among analogues,rice,"more than those of BR2, BR3 and BR4"
same,Germination rate,rice seed; [1],52%
same,Germination rate,rice seed; [2],48%
same,Germination rate,rice seed; [3],42%
same,Germination rate,rice seed; [4],36%
same,Germination rate,rice seed; [5],53%
same,Germination rate,rice seed; [6],50%
same,Germination rate,rice seed; [7],44%
same,Germination rate,rice seed; [8],37%
same,Germination rate,rice seed; [9],55%
same,Germination rate,rice seed; [10],51%
same,Germination rate,rice seed; [11],46%
same,Germination rate,rice seed; [12],39%
same,Germination rate,rice seed; [13],58%
same,Germination rate,rice seed; [14],53%
same,Germination rate,rice seed; [15],47%
same,Germination rate,rice seed; [16],42%
same,Germination rate,rice seed; [17],68%
same,Germination rate,rice seed; [18],55%
same,Germination rate,rice seed; [19],52%
same,Germination rate,rice seed; [20],44%
CC(C)[C@H](C)[C@@H](O)[C@H](O)[C@@H](C)[C@H]1CCC2C3CC(=O)C4C[C@H](O)CC[C@]4(C)C3CC[C@@]21C (some centres unmarked) [BR4],Average angle,rice; 0.0001 mg/l,3.8 degree
same,Total angle,rice; 0.0001 mg/l,76 degree
same,Average angle,rice; 0.001 mg/l,6.5 degree
same,Total angle,rice; 0.001 mg/l,130 degree
same,Average angle,rice; 0.01 mg/l,12.25 degree
same,Total angle,rice; 0.01 mg/l,245 degree
same,Average angle,rice; 0.1 mg/l,21.4 degree
same,Total angle,rice; 0.1 mg/l,428 degree
same,Average angle,rice; 1 mg/l,64 degree
same,Total angle,rice; 1 mg/l,1280 degree
same,Germination rate,rice seed; [21],50%
same,Germination rate,rice seed; [22],47%
same,Germination rate,rice seed; [23],42%
same,Germination rate,rice seed; [24],36%
same,Germination rate,rice seed; [25],51%
same,Germination rate,rice seed; [26],49%
same,Germination rate,rice seed; [27],43%
same,Germination rate,rice seed; [28],37%
same,Germination rate,rice seed; [29],55%
same,Germination rate,rice seed; [30],52%
same,Germination rate,rice seed; [31],47%
same,Germination rate,rice seed; [32],39%
same,Germination rate,"rice seed; sample 0.1 mg/l, salt 300 mg/l",58%
same,Germination rate,"rice seed; sample 0.1 mg/l, salt 400 mg/l",50%
same,Germination rate,"rice seed; sample 0.1 mg/l, salt 500 mg/l",49%
same,Germination rate,"rice seed; sample 0.1 mg/l, salt 600 mg/l",40%
same,Germination rate,"rice seed; sample 1 mg/l, salt 300 mg/l",60%
same,Germination rate,"rice seed; sample 1 mg/l, salt 400 mg/l",55%
same,Germination rate,"rice seed; sample 1 mg/l, salt 500 mg/l",50%
same,Germination rate,"rice seed; sample 1 mg/l, salt 600 mg/l",41%
CC(C)C[C@@H](O)[C@H](O)[C@@H](C)[C@H]1CCC2C3CC(=O)C4C[C@H](O)[C@H](O)C[C@]4(C)C3CC[C@@]21C (some centres unmarked) [BR5],Average angle,rice; 0.0001 mg/l,3.9 degree
same,Total angle,rice; 0.0001 mg/l,78 degree
same,Average angle,rice; 0.001 mg/l,9.3 degree
same,Total angle,rice; 0.001 mg/l,186 degree
same,Average angle,rice; 0.01 mg/l,20.05 degree
same,Total angle,rice; 0.01 mg/l,401 degree
same,Average angle,rice; 0.1 mg/l,35 degree
same,Total angle,rice; 0.1 mg/l,700 degree
same,Average angle,rice; 1 mg/l,110 degree
same,Total angle,rice; 1 mg/l,2200 degree
same,Effects on leaf inclination compared among analogues,rice,"more than those of BR2, BR3 and BR4"
same,Germination rate,rice seed; [1],50%
same,Germination rate,rice seed; [2],48%
same,Germination rate,rice seed; [3],42%
same,Germination rate,rice seed; [4],36%
same,Germination rate,rice seed; [5],52%
same,Germination rate,rice seed; [6],49%
same,Germination rate,rice seed; [7],45%
same,Germination rate,rice seed; [8],38%
same,Germination rate,rice seed; [9],56%
same,Germination rate,rice seed; [10],51%
same,Germination rate,rice seed; [11],47%
same,Germination rate,rice seed; [12],39%
same,Germination rate,rice seed; [13],58%
same,Germination rate,rice seed; [14],52%
same,Germination rate,rice seed; [15],43%
same,Germination rate,rice seed; [16],40%
same,Germination rate,rice seed; [17],62%
same,Germination rate,rice seed; [18],55%
same,Germination rate,rice seed; [19],50%
same,Germination rate,rice seed; [20],42%
C=C(C(C)C)[C@@H](O)[C@H](O)[C@@H](C)[C@H]1CCC2C3COC(=O)C4C[C@H](O)[C@H](O)C[C@]4(C)C3CC[C@@]21C (some centres unmarked) [BR3],Average angle,rice; 0.0001 mg/l,3.84 degree
same,Total angle,rice; 0.0001 mg/l,76.8 degree
same,Average angle,rice; 0.001 mg/l,6.8 degree
same,Total angle,rice; 0.001 mg/l,136 degree
same,Average angle,rice; 0.01 mg/l,12.15 degree
same,Total angle,rice; 0.01 mg/l,243 degree
same,Average angle,rice; 0.1 mg/l,21 degree
same,Total angle,rice; 0.1 mg/l,420 degree
same,Average angle,rice; 1 mg/l,65.3 degree
same,Total angle,rice; 1 mg/l,1306 degree
same,Germination rate,rice seed; [21],50%
same,Germination rate,rice seed; [22],45%
same,Germination rate,rice seed; [23],39%
same,Germination rate,rice seed; [24],32%
same,Germination rate,rice seed; [25],50%
same,Germination rate,rice seed; [26],43%
same,Germination rate,rice seed; [27],40%
same,Germination rate,rice seed; [28],33%
same,Germination rate,rice seed; [29],51%
same,Germination rate,rice seed; [30],50%
same,Germination rate,rice seed; [31],47%
same,Germination rate,rice seed; [32],39%
same,Germination rate,"rice seed; sample 0.1 mg/l, salt 300 mg/l",50%
same,Germination rate,"rice seed; sample 0.1 mg/l, salt 400 mg/l",50%
same,Germination rate,"rice seed; sample 0.1 mg/l, salt 500 mg/l",41%
same,Germination rate,"rice seed; sample 0.1 mg/l, salt 600 mg/l",38%
same,Germination rate,"rice seed; sample 1 mg/l, salt 300 mg/l",52%
same,Germination rate,"rice seed; sample 1 mg/l, salt 400 mg/l",46%
same,Germination rate,"rice seed; sample 1 mg/l, salt 500 mg/l",40%
same,Germination rate,"rice seed; sample 1 mg/l, salt 600 mg/l",38%
